Results on two compounds are retold here after PMC4876372 (Scientific Reports, 2016).

Read-outs that look alike come from different tables or passages of the source.

The target of data set [1] is T1, His-tagged human recombinant ITPA protein (Homo sapiens, UniProt Q9BY32).
T1 construct: His; purchased ProSpec
In words: ITPA enzyme assay. The format is biochemical. To be noted: at 100 μM. As for the experimental part: Likewise, the enzymatic activities of ITPA and DCTPP1 were measured using a PPiLight Inorganic Pyrophosphate Assay kit. For the ITPA enzyme assay, we used ITPA assay buffer (100 mM Tris-acetate, 50 mM Mg(OAc)2, 0.005% Tween-20, and 2 mM DTT, pH 7.5), His-tagged human recombinant ITPA protein (5 nM; ProSpec), and ITP (25 μM). For the DCTPP1 enzyme assay, we used DCTPP1 assay buffer (100 mM Tris-acetate, 100 mM NaCl, 10 mM Mg(OAc)2, 0.005% Tween-20, and 2 mM DTT, pH 7.5), His-tagged human recombinant DCTPP1 protein (50 nM; ATGen), and deoxycytidine triphosphate (dCTP; 50 μM).
To exclude false positive compounds that inhibit PPi detection, the effects of test compounds on 10 μM Na4P2O7-induced luciferase activity were examined.

The target of data set [2] is T2, porcine tubulin (Sus scrofa, UniProt P02550+P02554).
T2 construct: purchased Cytoskeleton
In words: In vitro tubulin polymerization assay. The data set is classed as biochemical. To be noted: even at 300 μM. As for the experimental part: In vitro tubulin polymerization assay was performed using a tubulin polymerization assay kit (Cytoskeleton) according to the manufacturer’s instructions. Briefly, lyophilized porcine tubulin was solubilized to a final concentration of 2 mg/mL in reaction buffer containing 80 mM piperazine-N,N′-bis(2-ethanesulfonic acid) (PIPES; pH 6.9), 2 mM MgCl2, 0.5 mM ethylene glycol tetraacetic acid (EGTA), 1 mM guanosine-5′-triphosphate (GTP), 10 μM fluorescent reporter, and 20% glycerol, and kept at 4 °C. Compounds (100 × DMSO stock solutions) were added to prewarmed half-area 96-well black plates. Cold tubulin solution was added to the wells. The plate contents were mixed by shaking, and fluorescence (Ex 350 nm, Em 435 nm) was read every minute for 1 h using a fluorescence microplate reader (Molecular Devices).

Data set [3] is described as follows: Cell death assay (WST-8) in HeLa cells. The format is cell-based, human. To be noted: human, HeLa cells (cervical cancer); 72 h, WST-8; read-out: cytotoxicity IC50 against HeLa cells. As for the experimental part: (§1) Human cancer cell lines HeLa (cervical cancer), MIA PaCa-2 (pancreatic cancer), A431 (epidermoid carcinoma), and human embryonic kidney derived cell line HEK293T were cultured in Dulbecco’s Modified Eagle’s Medium (DMEM; Invitrogen) containing 10% fetal bovine serum (FBS), penicillin G (50 units/mL) and streptomycin (50 µg/mL). Human cancer cell lines Panc-1 (pancreatic cancer) and Jurkat (T cell lymphoma) were cultured in RPMI (Gibco) containing 10% FBS, penicillin G (50 units/mL) and streptomycin (50 µg/mL). Human osteosarcoma cell line MG-63, mouse embryonic fibroblast NIH3T3 cells and its transformant NIH3T3/KRAS cells1 were cultured in DMEM (Sigma-Aldrich) containing 10% calf serum, glutamine (0.3 g/L), penicillin G (50 units/mL), and streptomycin (50 µg/mL). All cell lines were incubated at 37 °C in a humidified atmosphere containing 5% CO2.
The cells were seeded in 96-well plates, cultured overnight, and treated with test compounds for the indicated time. Subsequently, cell viability was measured by the WST-8 assay, using Cell Count Reagent SF (Nacalai Tesque) according to the manufacturer ’s instructions, with the measurement of absorbance set at 450 nm on the ARVO SX 1420 Multilabel Counter (Wallac). […]
In general terms: Tetrazolium dyes change colour on reduction, which living cells bring about.

For data set [4], the target named is T3, His-tagged human recombinant MTH1 protein (Homo sapiens, UniProt P36639).
T3 construct: His; purchased ProSpec
As to the kind of experiment: MTH1 enzyme assay (PPiLight pyrophosphate detection). The data set is classed as biochemical. To be noted: for IC50: MTH1 2 nM; for Ki: Dixon plot; for manner of MTH1 inhibition: with respect to 8-oxo-dGTP and 2-OH-dATP, Lineweaver-Burk. As for the experimental part:
An MTH1 enzyme assay was performed as described previously with minor modifications. Briefly, test compounds were dissolved in an assay buffer [100 mM Tris-acetate, 40 mM NaCl, 10 mM Mg(OAc)2, 0.005% Tween-20, and 2 mM dithiothreitol (DTT), pH 7.5] containing His-tagged human recombinant MTH1 protein (2 nM; ProSpec). […] Relative MTH1 activity was measured by monitoring the pyrophosphate (PPi) generated through MTH1-catalyzed nucleotide triphosphate hydrolysis. The luciferase-mediated luminescence signal was recorded for 30 min using a luminometer (Molecular Devices).

In data set [5] the test system is 8-oxo-dG levels in DNA of HeLa cells. In words: 8-oxo-dG immunofluorescence. The data set is classed as cell-based, human. The note with it: 20 h, NPD compounds 100 μM, TH287 3 and 10 μM. As for the experimental part: as §1, with “CO2. […]” for “CO2.”
The HeLa cells were seeded on glass coverslips in 12-well plates, cultured overnight, and treated with test compounds for the indicated time. For 8-oxo-dG, cells were fixed sequentially in 3.7% formalin for 10 min and methanol at -20 °C for 10 min, and then permeabilized in 0.5% Triton X-100 in PBS at room temperature for 5 min. After blocking with 0.5% BSA in PBS at room temperature for 30 min, cells were incubated sequentially with a primary antibody against 8-oxo-dG (5 µg/mL, MOG-020; Japan Institute for the Control of Aging) and with Alexa Fluor 488-conjugated secondary antibody (1:400, Life Technologies) under the same conditions. After a quick rinse in PBS, DNA was counterstained with 0.1 µg/mL 4′,6-diamidino-2-phenylindole (DAPI) in PBS at room temperature for 10 min. Images were analyzed with a fluorescence microscope (BX60, Olympus).

[6] abbreviates: substrate 2-OH-dATP (8.3 μM), read-out: IC50 of MTH1 inhibitory activity, 2-OH-dATP.
[7] abbreviates: substrate 2-OH-dATP, read-out: Ki for 2-OH-dATP.
[8] abbreviates: substrate 8-oxo-dGTP, read-out: Ki for 8-oxo-dGTP.

By IC50 is commonly meant the concentration at which inhibition is half-maximal. A word on the Ki: it is a measure of affinity in units of concentration, obtained from inhibition or displacement.

T2 sequence (P02550 whole entry): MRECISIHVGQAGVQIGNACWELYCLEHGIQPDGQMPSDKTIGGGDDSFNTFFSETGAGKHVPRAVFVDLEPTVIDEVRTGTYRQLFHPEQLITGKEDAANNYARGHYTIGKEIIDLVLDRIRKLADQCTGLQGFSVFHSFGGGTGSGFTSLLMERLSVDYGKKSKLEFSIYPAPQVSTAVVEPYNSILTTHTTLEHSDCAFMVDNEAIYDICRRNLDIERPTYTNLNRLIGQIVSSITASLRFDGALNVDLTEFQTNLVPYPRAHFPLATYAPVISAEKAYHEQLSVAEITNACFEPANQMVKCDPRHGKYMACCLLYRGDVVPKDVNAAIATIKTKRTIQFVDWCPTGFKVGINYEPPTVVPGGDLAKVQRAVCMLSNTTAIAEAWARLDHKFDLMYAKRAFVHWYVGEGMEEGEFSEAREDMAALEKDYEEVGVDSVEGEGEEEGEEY
T2 sequence (P02554 whole entry): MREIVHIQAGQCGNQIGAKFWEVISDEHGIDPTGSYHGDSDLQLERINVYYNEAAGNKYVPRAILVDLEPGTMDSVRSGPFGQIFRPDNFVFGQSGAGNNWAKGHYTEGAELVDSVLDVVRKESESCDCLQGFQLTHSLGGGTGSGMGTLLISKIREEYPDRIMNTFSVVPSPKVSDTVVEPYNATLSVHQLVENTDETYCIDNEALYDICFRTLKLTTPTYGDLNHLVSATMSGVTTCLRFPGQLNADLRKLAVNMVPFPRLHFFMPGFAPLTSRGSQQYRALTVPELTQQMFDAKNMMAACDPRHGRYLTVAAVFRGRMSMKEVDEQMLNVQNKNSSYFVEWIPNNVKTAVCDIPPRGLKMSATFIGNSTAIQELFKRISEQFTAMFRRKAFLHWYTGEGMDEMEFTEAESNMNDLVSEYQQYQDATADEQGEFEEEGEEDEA

Consider `CC1(C)CC2CC(C)(CN2c2ncnc3[nH]cnc23)C1` (centres unmarked) [NPD7155], for which, in data set [1], the “effect on enzymatic activity of ITPA” value is listed as “did not affect”. Also, the “effect on tubulin polymerization in vitro” value in data set [2] is “did not affect tubulin polymerization”. In data set [3], the IC50 at 72 h worked out at 65000 nM. Further, the IC50 in data set [4] (setting [6]) is 380 ± 160 nM. The figures for the inhibitory constant (Ki) in data set [4] (setting [7]) and in data set [4] (setting [8]) were 180 ± 30 nM and 100 ± 40 nM, respectively. Moreover, the “manner of MTH1 inhibition” value in data set [4] is on record as “competitive”. Besides, in data set [5], the “accumulation of 8-oxo-dG” value was “did not induce the significant accumulation”.
On to `Nc1nc(NCCc2ccccc2)c2nc[nH]c2n1` [NPD9948], for which the “effect on enzymatic activity of ITPA” value in data set [1] is on record as “did not affect”. Moreover, the “effect on tubulin polymerization in vitro” value in data set [2] was “did not affect tubulin polymerization”. In data set [3], the 50% inhibitory concentration (IC50) at 72 h came to 35000 nM. Also, the half-inhibitory concentration (IC50) in data set [4] (setting [6]) turned out to be 500 ± 210 nM; in data set [4] (substrate 8-oxo-dGTP (13.2 μM), read-out: IC50 of MTH1 inhibitory activity, 8-oxo-dGTP) it was 290 ± 50 nM. Moreover, the inhibition constant (Ki) in data set [4] (setting [7]) was 220 ± 40 nM; in data set [4] (setting [8]), 130 ± 50 nM. The “manner of MTH1 inhibition” value in data set [4] is given as “competitive”. Besides, in data set [5], the “accumulation of 8-oxo-dG” value is on record as “did not induce the significant accumulation”.
